These results are taken from US10654832B2, “3-(benzoimidazol-2-YL)-indazole inhibitors of the Wnt signaling pathway and therapeutic uses thereof” (Samumed, LLC, priority 2013, dated 2020).

The assay deals with Wnt activity (wnt-responsive SP5 promoter luciferase reporter in SW480 cells). The assay is described as follows: Wnt activity reporter assay (SP5 promoter-firefly luciferase in SW480 cells). It counts as cell-based. To be noted: Homo sapiens; SW480 colon cancer cells with SP5 promoter luciferase reporter; 24 h after compound addition; half-log dilutions, three micromolar top concentration; normalized to DMSO; read-out: Wnt inhibition. The text has this: The above synthesized compounds were screened using the assay procedure for Wnt activity described below.
Reporter cell lines were generated by stably transducing cells of cancer cell lines (e.g., colon cancer) with a lentiviral construct that include a wnt-responsive promoter driving expression of the firefly luciferase gene.
Lentiviral constructs were made in which the SP5 promoter, a promoter having eight TCF/LEF binding sites derived from the SP5 promoter, was linked upstream of the firefly luciferase gene. The lentiviral constructs included a hygromycin resistance gene as a selectable marker. The SP5 promoter construct was used to transduce SW480 cells, a colon cancer cell line having a mutated APC gene that generates a truncated APC protein, leading to de-regulated accumulation of β-catenin.
Cultured SW480 cells bearing a reporter construct were distributed at approximately 10,000 cells per well into 384 well multiwell plates. Compounds were then added to the wells in half-log dilutions using a three micromolar top concentration. A series of control wells for each cell type received only buffer and compound solvent. Twenty-four hours after the addition of compound, reporter activity for luciferases was assayed, for example, by addition of the BrightGlo luminescence reagent (Promega) and the Victor3 plate reader (Perkin Elmer). Readings were normalized to DMSO only treated cells, and normalized activities were then used for the IC50 calculations.
(In a reporter assay the amount or activity of a reporter protein is the signal.)
As for `CN(C)Cc1cncc(-c2ccc3[nH]nc(-c4nc5c(-c6ccccn6)cccc5[nH]4)c3c2)c1` [Compound 133, N,N-Dimethyl-1-(5-(3-(4-(pyridin-2-yl)-1H-benzo[d]imidazol-2-yl)-1H-indazol-5-yl)pyridin-3-yl)methanamine], the IC50 is 0.127 µM.

Turning to `c1ccc(-c2cccc3[nH]c(-c4n[nH]c5ccc(-c6cncc(CN7CCCC7)c6)cc45)nc23)nc1` [Compound 134, 3-(4-(Pyridin-2-yl)-1H-benzo[d]imidazol-2-yl)-5-(5-(pyrrolidin-1-ylmethyl)pyridin-3-yl)-1H-indazole], the IC50 was 0.219 µM.

Turning to `CCCCC(=O)Nc1cncc(-c2ccc3[nH]nc(-c4nc5c(-c6ccccn6)cccc5[nH]4)c3c2)c1` [Compound 138, N-(5-(3-(4-(Pyridin-2-yl)-1H-benzo[d]imidazol-2-yl)-1H-indazol-5-yl)pyridin-3-yl)pentanamide], the IC50 was 0.018 µM.

As to `O=C(Nc1cncc(-c2ccc3[nH]nc(-c4nc5c(-c6ccccn6)cccc5[nH]4)c3c2)c1)C1CCC1` [Compound 140, N-(5-(3-(4-(Pyridin-2-yl)-1H-benzo[d]imidazol-2-yl)-1H-indazol-5-yl)pyridin-3-yl)cyclobutanecarboxamide], the IC50 was 0.008 µM.

Regarding `O=C(Nc1cncc(-c2ccc3[nH]nc(-c4nc5c(-c6ccccn6)cccc5[nH]4)c3c2)c1)C1CCCCC1` [Compound 142, N-(5-(3-(4-(Pyridin-2-yl)-1H-benzo[d]imidazol-2-yl)-1H-indazol-5-yl)pyridin-3-yl)cyclohexanecarboxamide], the IC50 was 0.155 µM.

In the case of `c1ccc(-c2cccc3[nH]c(-c4n[nH]c5ccc(-c6cncc(CNCC7CCCC7)c6)cc45)nc23)nc1` [Compound 144, 1-Cyclopentyl-N-((5-(3-(4-(pyridin-2-yl)-1H-benzo[d]imidazol-2-yl)-1H-indazol-5-yl)pyridin-3-yl)methyl)methanamine], the IC50 is 1.18 µM.

Consider `CC(C)CC(=O)Nc1cncc(-c2ccc3[nH]nc(-c4nc5c(N6CCCCC6)cccc5[nH]4)c3c2)c1` [Compound 146, 3-Methyl-N-(5-(3-(4-(piperidin-1-yl)-1H-benzo[d]imidazol-2-yl)-1H-indazol-5-yl)pyridin-3-yl)butanamide], for which the IC50 is 0.058 µM.

Take `CN(C)c1cncc(-c2ccc3[nH]nc(-c4nc5c(N6CCCCC6)cccc5[nH]4)c3c2)c1` [Compound 151, N,N-Dimethyl-5-(3-(4-(piperidin-1-yl)-1H-benzo[d]imidazol-2-yl)-1H-indazol-5-yl)pyridin-3-amine]: the IC50 was determined as 0.041 µM.

On to `O=C(Nc1cncc(-c2ccc3[nH]nc(-c4nc5c(N6CCCCC6)cccc5[nH]4)c3c2)c1)c1ccccc1` [Compound 155, N-(5-(3-(4-(Piperidin-1-yl)-1H-benzo[d]imidazol-2-yl)-1H-indazol-5-yl)pyridin-3-yl)benzamide], for which the IC50 came to 0.289 µM.

Turning to `CC(C)Nc1cncc(-c2ccc3[nH]nc(-c4nc5c(N6CCCCC6)cccc5[nH]4)c3c2)c1` [Compound 156, N-Isopropyl-5-(3-(4-(piperidin-1-yl)-1H-benzo[d]imidazol-2-yl)-1H-indazol-5-yl)pyridin-3-amine], the IC50 was found to be 0.066 µM.

For `c1cc(N2CCCCC2)c2nc(-c3n[nH]c4ccc(-c5cncc(CN6CCCC6)c5)cc34)[nH]c2c1` [Compound 158, 3-(4-(Piperidin-1-yl)-1H-benzo[d]imidazol-2-yl)-5-(5-(pyrrolidin-1-ylmethyl)pyridin-3-yl)-1H-indazole], the IC50 stood at 0.116 µM.

`CCCCC(=O)Nc1cncc(-c2ccc3[nH]nc(-c4nc5c(N6CCCCC6)cccc5[nH]4)c3c2)c1` [Compound 162, N-(5-(3-(4-(Piperidin-1-yl)-1H-benzo[d]imidazol-2-yl)-1H-indazol-5-yl)pyridin-3-yl)pentanamide]: the IC50 turned out to be 0.14 µM.

On to `O=C(Nc1cncc(-c2ccc3[nH]nc(-c4nc5c(N6CCCCC6)cccc5[nH]4)c3c2)c1)C1CCCCC1` [Compound 166, N-(5-(3-(4-(Piperidin-1-yl)-1H-benzo[d]imidazol-2-yl)-1H-indazol-5-yl)pyridin-3-yl)cyclohexanecarboxamide], for which the IC50 was determined as 0.445 µM.

For the compound `Cc1cn(-c2cccc3[nH]c(-c4n[nH]c5ccc(-c6cnccc6C)cc45)nc23)cn1` [Compound 173], the IC50 stood at 0.046 µM.

On to `Cc1cn(-c2cccc3[nH]c(-c4n[nH]c5ccc(-c6cncc(NC(=O)c7ccccc7)c6)cc45)nc23)cn1` [Compound 179, N-(5-(3-(4-(4-Methyl-1H-imidazol-1-yl)-1H-benzo[d]imidazol-2-yl)-1H-indazol-5-yl)pyridin-3-yl)benzamide], for which the IC50 was 0.01 µM.

Take `Cc1cn(-c2cccc3[nH]c(-c4n[nH]c5ccc(-c6cncc(NC(=O)CC(C)(C)C)c6)cc45)nc23)cn1` [Compound 184, 3,3-Dimethyl-N-(5-(3-(4-(4-methyl-1H-imidazol-1-yl)-1H-benzo[d]imidazol-2-yl)-1H-indazol-5-yl)pyridin-3-yl)butanamide]: the IC50 is 0.115 µM.

In the case of `CCCCC(=O)Nc1cncc(-c2ccc3[nH]nc(-c4nc5c(-n6cnc(C)c6)cccc5[nH]4)c3c2)c1` [Compound 186, N-(5-(3-(4-(4-Methyl-1H-imidazol-1-yl)-1H-benzo[d]imidazol-2-yl)-1H-indazol-5-yl)pyridin-3-yl)pentanamide], the IC50 worked out at 0.006 µM.

As for `Cc1cn(-c2cccc3[nH]c(-c4n[nH]c5ccc(-c6cncc(NC(=O)C7CCCC7)c6)cc45)nc23)cn1` [Compound 189, N-(5-(3-(4-(4-Methyl-1H-imidazol-1-yl)-1H-benzo[d]imidazol-2-yl)-1H-indazol-5-yl)pyridin-3-yl)cyclopentanecarboxamide], the IC50 came out at 0.013 µM.

For `Cc1cn(-c2cccc3[nH]c(-c4n[nH]c5ccc(-c6cncc(CNCc7ccccc7)c6)cc45)nc23)cn1` [Compound 191, N-Benzyl-1-(5-(3-(4-(4-methyl-1H-imidazol-1-yl)-1H-benzo[d]imidazol-2-yl)-1H-indazol-5-yl)pyridin-3-yl)methanamine], the IC50 came out at 0.138 µM.

Regarding `CN1CCN(c2cccc3[nH]c(-c4n[nH]c5ccc(-c6cccnc6)cc45)nc23)CC1` [Compound 196, 3-(4-(4-Methylpiperazin-1-yl)-1H-benzo[d]imidazol-2-yl)-5-(pyridin-3-yl)-1H-indazole], the IC50 turned out to be 0.028 µM.

Consider `Cc1ccncc1-c1ccc2[nH]nc(-c3nc4c(N5CCN(C)CC5)cccc4[nH]3)c2c1` [Compound 197, 3-(4-(4-Methylpiperazin-1-yl)-1H-benzo[d]imidazol-2-yl)-5-(4-methylpyridin-3-yl)-1H-indazole], for which the IC50 is 0.249 µM.

As to `CN1CCN(c2cccc3[nH]c(-c4n[nH]c5ccc(-c6cncc(NC(=O)C(C)(C)C)c6)cc45)nc23)CC1` [Compound 200, N-(5-(3-(4-(4-Methylpiperazin-1-yl)-1H-benzo[d]imidazol-2-yl)-1H-indazol-5-yl)pyridin-3-yl)pivalamide], the IC50 stood at 0.076 µM.

With `CN1CCN(c2cccc3[nH]c(-c4n[nH]c5ccc(-c6cncc(NC(=O)Cc7ccccc7)c6)cc45)nc23)CC1` [Compound 202, N-(5-(3-(4-(4-methylpiperazin-1-yl)-1H-benzo[d]imidazol-2-yl)-1H-indazol-5-yl)pyridin-3-yl)-2-phenylacetamide], the IC50 was found to be 0.248 µM.

Take `CCCC(=O)Nc1cncc(-c2ccc3[nH]nc(-c4nc5c(N6CCN(C)CC6)cccc5[nH]4)c3c2)c1` [Compound 209, N-(5-(3-(4-(4-Methylpiperazin-1-yl)-1H-benzo[d]imidazol-2-yl)-1H-indazol-5-yl)pyridin-3-yl)butyramide]: the IC50 came to 0.061 µM.

Turning to `CN1CCN(c2cccc3[nH]c(-c4n[nH]c5ccc(-c6cncc(NC(=O)C7CCCC7)c6)cc45)nc23)CC1` [Compound 213, N-(5-(3-(4-(4-Methylpiperazin-1-yl)-1H-benzo[d]imidazol-2-yl)-1H-indazol-5-yl)pyridin-3-yl)cyclopentanecarboxamide], the IC50 is 0.195 µM.

For `CC(C)CC(=O)Nc1cncc(-c2ccc3[nH]nc(-c4nc5ccccc5[nH]4)c3c2)c1` [Compound 218, N-(5-(3-(1H-Benzo[d]imidazol-2-yl)-1H-indazol-5-yl)pyridin-3-yl)-3-methylbutanamide], the IC50 was 0.037 µM.

`c1cncc(-c2ccc3[nH]nc(-c4nc5ccccc5[nH]4)c3c2)c1` [Compound 220]: the IC50 is 0.165 µM.

For `Cc1ccncc1-c1ccc2[nH]nc(-c3nc4ccccc4[nH]3)c2c1` [Compound 221, 3-(1H-Benzo[d]imidazol-2-yl)-5-(4-methylpyridin-3-yl)-1H-indazole], the IC50 stood at 0.317 µM.

With `CCNCc1cncc(-c2ccc3[nH]nc(-c4nc5ccccc5[nH]4)c3c2)c1` [Compound 222], the IC50 was determined as 0.235 µM.

In the case of `CC(C)C(=O)Nc1cncc(-c2ccc3[nH]nc(-c4nc5ccccc5[nH]4)c3c2)c1` [Compound 225, N-(5-(3-(1H-Benzo[d]imidazol-2-yl)-1H-indazol-5-yl)pyridin-3-yl) isobutyramide], the IC50 was 0.028 µM.

Take `O=C(Nc1cncc(-c2ccc3[nH]nc(-c4nc5ccccc5[nH]4)c3c2)c1)c1ccccc1` [Compound 227, N-(5-(3-(1H-Benzo[d]imidazol-2-yl)-1H-indazol-5-yl)pyridin-3-yl) benzamide]: the IC50 turned out to be 0.099 µM.

For the compound `CC(C)(C)CC(=O)Nc1cncc(-c2ccc3[nH]nc(-c4nc5ccccc5[nH]4)c3c2)c1` [Compound 232, N-(5-(3-(1H-Benzo[d]imidazol-2-yl)-1H-indazol-5-yl)pyridin-3-yl)-3,3-dimethylbutanamide], the IC50 was 0.065 µM.
